{"source": "the supplement of paper PMC11208160", "data": [{"assay": "recombinant barcode read abundance after kanamycin selection (control-corrected) (log10(CPM+1)); higher = more efficient recombination; sequences stand for … in AGTGCAGAGAAAATCGGCCAGTTTTCTCTGCCTGCAGTCCGCATGCCGT…AGATTTATGCAGCGGACTGCCTTTCTCCCAAAGTGATAAACCGGACAGTATCATGGACCGGTTTTCCCGGTAATCCGTATTTGCAAGGTTGGTTTCACT; site = the 11-nt target", "in_short": "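Targets were screened in pooled form in E. coli against IS621 bridge RNA target-binding loops. Recombination efficiency is based on barcode counts at recombinant junctions in counts per million, averaged and corrected for the control. Numbers are shown as log10(CPM+1), with duplicate plates on chloramphenicol/ampicillin LB agar (control) or chloramphenicol/ampicillin/kanamycin with 0.1 mM IPTG.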", "values": [{"sequence": "GACCGCGCTTGGGTTCTAACCTGTTGCCT (site GACCGAGCTAG)", "recombinant barcode read abundance (log10)": 0.672}, {"sequence": "GACCGCGCTTGGGTTCTAACCTGTTGCCT (site GACCGCGCTAG)", "recombinant barcode read abundance (log10)": 1.05}, {"sequence": "GACCGCGCTTGGGTTCTAACCTGTTGCCT (site GACCGGGCTAG)", "recombinant barcode read abundance (log10)": 0.0432}, {"sequence": "GACCGCGCTTGGGTTCTAACCTGTTGCCT (site GACCGTGCTAG)", "recombinant barcode read abundance (log10)": 0.0542}, {"sequence": "GACCGGACTTGGGTTCTAACCTGTTGCGT (site GACCGGACTAC)", "recombinant barcode read abundance (log10)": 2.44}, {"sequence": "GACCGGACTTGGGTTCTAACCTGTTGCGT (site GAGTGGACTAC)", "recombinant barcode read abundance (log10)": 0.0356}, {"sequence": "GACGAAGCTTGGGTTCTAACCTGTTGCCT (site GACGAAGCTAG)", "recombinant barcode read abundance (log10)": 0.348}, {"sequence": "GACGAAGCTTGGGTTCTAACCTGTTGCCT (site TCCGAAGCTAG)", "recombinant barcode read abundance (log10)": 0.0613}, {"sequence": "GACGATCCTTGGGTTCTAACCTGTTGCAT (site GACGATCCTAT)", "recombinant barcode read abundance (log10)": 0.547}, {"sequence": "GACGATCCTTGGGTTCTAACCTGTTGCAT (site GGCGAACCTAT)", "recombinant barcode read abundance (log10)": 0.077}, {"sequence": "GACGATCCTTGGGTTCTAACCTGTTGCCT (site GACGATCCTAG)", "recombinant barcode read abundance (log10)": 0.66}, {"sequence": "GACGATCCTTGGGTTCTAACCTGTTGCCT (site GCCGATCCTAG)", "recombinant barcode read abundance (log10)": 0.0719}, {"sequence": "GACGATCCTTGGGTTCTAACCTGTTGCCT (site GGCGATCCTAG)", "recombinant barcode read abundance (log10)": 0.255}, {"sequence": "GACGATCCTTGGGTTCTAACCTGTTGCCT (site GTCGATCCTAG)", "recombinant barcode read abundance (log10)": 0.0852}, {"sequence": "GACGCGGCTTGGGTTCTAACCTGTTGCCT (site GACGCGGCTAG)", "recombinant barcode read abundance (log10)": 0.184}, {"sequence": "GACGCGGCTTGGGTTCTAACCTGTTGCCT (site TTGCGAACTCT)", "recombinant barcode read abundance (log10)": 0.059}, {"sequence": "GACGGTCCTTGGGTTCTAACCTGTTGCGG (site GACGGTCCTCC)", "recombinant barcode read abundance (log10)": 2.15}, {"sequence": "GACGGTCCTTGGGTTCTAACCTGTTGCGG (site GATGGTCCTCC)", "recombinant barcode read abundance (log10)": 0.418}, {"sequence": "GACGTGTCTTGGGTTCTAACCTGTTGCCG (site GACGTGTCTCG)", "recombinant barcode read abundance (log10)": 0.408}, {"sequence": "GACGTGTCTTGGGTTCTAACCTGTTGCCG (site GGCGTGTCTCC)", "recombinant barcode read abundance (log10)": 0.0409}, {"sequence": "GACGTGTCTTGGGTTCTAACCTGTTGCGT (site AGTCATACTTG)", "recombinant barcode read abundance (log10)": 0}, {"sequence": "GACGTGTCTTGGGTTCTAACCTGTTGCGT (site GACGTGTCTAC)", "recombinant barcode read abundance (log10)": 2.47}, {"sequence": "GACTCATCTTGGGTTCTAACCTGTTGCGG (site GACTCATCTCC)", "recombinant barcode read abundance (log10)": 0.151}, {"sequence": "GACTCATCTTGGGTTCTAACCTGTTGCGG (site GACTTGTCTCC)", "recombinant barcode read abundance (log10)": 0.11}, {"sequence": "GACTCTCCTTGGGTTCTAACCTGTTGCTG (site GACTCTCCTCA)", "recombinant barcode read abundance (log10)": 0.146}, {"sequence": "GACTCTCCTTGGGTTCTAACCTGTTGCTG (site GACTCTCCTCT)", "recombinant barcode read abundance (log10)": 0.0367}, {"sequence": "GACTGAGCTTGGGTTCTAACCTGTTGCGT (site GACTGAGCTAC)", "recombinant barcode read abundance (log10)": 2.58}, {"sequence": "GACTGAGCTTGGGTTCTAACCTGTTGCGT (site GGCTGAGCTAG)", "recombinant barcode read abundance (log10)": 0.236}, {"sequence": "GACTGCCCTTGGGTTCTAACCTGTTGCGG (site GACTGCCCTCC)", "recombinant barcode read abundance (log10)": 1.54}, {"sequence": "GACTGCCCTTGGGTTCTAACCTGTTGCGG (site GGCGGCCCTCC)", "recombinant barcode read abundance (log10)": 0.137}, {"sequence": "GACTTACCTTGGGTTCTAACCTGTTGCAT (site GACTTACCTAT)", "recombinant barcode read abundance (log10)": 1.18}, {"sequence": "GACTTACCTTGGGTTCTAACCTGTTGCAT (site GACTTCCCTAT)", "recombinant barcode read abundance (log10)": 0.216}, {"sequence": "GACTTACCTTGGGTTCTAACCTGTTGCAT (site GACTTGCCTAT)", "recombinant barcode read abundance (log10)": 0.135}, {"sequence": "GACTTACCTTGGGTTCTAACCTGTTGCAT (site GACTTTCCTAT)", "recombinant barcode read abundance (log10)": 0.124}, {"sequence": "GACTTCCCTTGGGTTCTAACCTGTTGCAT (site GACTTACCTAT)", "recombinant barcode read abundance (log10)": 0.352}, {"sequence": "GACTTCCCTTGGGTTCTAACCTGTTGCAT (site GACTTCCCTAT)", "recombinant barcode read abundance (log10)": 1.45}, {"sequence": "GACTTCCCTTGGGTTCTAACCTGTTGCAT (site GACTTGCCTAT)", "recombinant barcode read abundance (log10)": 0.0893}, {"sequence": "GACTTCCCTTGGGTTCTAACCTGTTGCAT (site GACTTTCCTAT)", "recombinant barcode read abundance (log10)": 0.0857}, {"sequence": "GACTTGCCTTGGGTTCTAACCTGTTGCCT (site GACTTGACTAG)", "recombinant barcode read abundance (log10)": 0.023}, {"sequence": "GACTTGCCTTGGGTTCTAACCTGTTGCCT (site GACTTGCCTAG)", "recombinant barcode read abundance (log10)": 0.816}, {"sequence": "GACTTGCCTTGGGTTCTAACCTGTTGCCT (site GACTTGGCTAG)", "recombinant barcode read abundance (log10)": 0.394}, {"sequence": "GACTTGCCTTGGGTTCTAACCTGTTGCCT (site GACTTGTCTAG)", "recombinant barcode read abundance (log10)": 0.217}, {"sequence": "GACTTGTCTTGGGTTCTAACCTGTTGCGG (site GACTCATCTCC)", "recombinant barcode read abundance (log10)": 0}, {"sequence": "GACTTGTCTTGGGTTCTAACCTGTTGCGG (site GACTTGTCTCC)", "recombinant barcode read abundance (log10)": 1.59}, {"sequence": "GACTTTACTTGGGTTCTAACCTGTTGCCT (site GACGTTGCTAG)", "recombinant barcode read abundance (log10)": 0.00775}, {"sequence": "GACTTTACTTGGGTTCTAACCTGTTGCCT (site GACTTTACTAG)", "recombinant barcode read abundance (log10)": 0.0133}, {"sequence": "GAGAGTACTTGGGTTCTAACCTGTTGCAT (site GAGAGTACTAT)", "recombinant barcode read abundance (log10)": 0.982}, {"sequence": "GAGAGTACTTGGGTTCTAACCTGTTGCAT (site GAGCGTACTAT)", "recombinant barcode read abundance (log10)": 0.16}, {"sequence": "GAGAGTACTTGGGTTCTAACCTGTTGCAT (site GAGGGTACTAT)", "recombinant barcode read abundance (log10)": 0.654}, {"sequence": "GAGAGTACTTGGGTTCTAACCTGTTGCAT (site GAGTGTACTAT)", "recombinant barcode read abundance (log10)": 0.0293}, {"sequence": "GAGATCCCTTGGGTTCTAACCTGTTGCCT (site GAGATCCCTAG)", "recombinant barcode read abundance (log10)": 2.03}, {"sequence": "GAGATCCCTTGGGTTCTAACCTGTTGCCT (site GTGATCCCTAG)", "recombinant barcode read abundance (log10)": 0.422}, {"sequence": "GAGCCTCCTTGGGTTCTAACCTGTTGCAT (site ACCAGGACTCG)", "recombinant barcode read abundance (log10)": 0.136}, {"sequence": "GAGCCTCCTTGGGTTCTAACCTGTTGCAT (site GAGCCTCCTAT)", "recombinant barcode read abundance (log10)": 1.81}, {"sequence": "GAGCCTTCTTGGGTTCTAACCTGTTGCAG (site AAGCCTTCTCA)", "recombinant barcode read abundance (log10)": 0.0383}, {"sequence": "GAGCCTTCTTGGGTTCTAACCTGTTGCAG (site GAGCCTTCTCT)", "recombinant barcode read abundance (log10)": 1.46}, {"sequence": "GAGCGAGCTTGGGTTCTAACCTGTTGCAG (site GAGCGAGCTCA)", "recombinant barcode read abundance (log10)": 0.578}, {"sequence": "GAGCGAGCTTGGGTTCTAACCTGTTGCAG (site GAGCGAGCTCC)", "recombinant barcode read abundance (log10)": 0.322}, {"sequence": "GAGCGAGCTTGGGTTCTAACCTGTTGCAG (site GAGCGAGCTCG)", "recombinant barcode read abundance (log10)": 0.175}, {"sequence": "GAGCGAGCTTGGGTTCTAACCTGTTGCAG (site GAGCGAGCTCT)", "recombinant barcode read abundance (log10)": 1.46}, {"sequence": "GAGCGAGCTTGGGTTCTAACCTGTTGCAT (site GAGAGAGCTAT)", "recombinant barcode read abundance (log10)": 0.0856}, {"sequence": "GAGCGAGCTTGGGTTCTAACCTGTTGCAT (site GAGCGAGCTAT)", "recombinant barcode read abundance (log10)": 1.94}, {"sequence": "GAGCGAGCTTGGGTTCTAACCTGTTGCAT (site GAGGGAGCTAT)", "recombinant barcode read abundance (log10)": 0.0637}, {"sequence": "GAGCGAGCTTGGGTTCTAACCTGTTGCAT (site GAGTGAGCTAT)", "recombinant barcode read abundance (log10)": 0.735}, {"sequence": "GAGCGCACTTGGGTTCTAACCTGTTGCAG (site GAGCGCACTCC)", "recombinant barcode read abundance (log10)": 0.27}, {"sequence": "GAGCGCACTTGGGTTCTAACCTGTTGCAG (site GAGCGCACTCT)", "recombinant barcode read abundance (log10)": 1.7}]}]}
